Results reported in ChEMBL document CHEMBL5303573, “Mapping human microbiome drug metabolism by gut bacteria and their genes” (Nature, 2019).

Experiments:
[1] = bacteroides fragilis, 12 h, 2 µM
Description: The drug is tested on Bacteroides fragilis strain: DS-208 for biotransformation. The drug concentrations were measured before and after a 12-h incubation by liquid-chromatography-coupled mass spectrometry (LC–MS)

[2] = segatella copri, 12 h, 2 µM
Description: The drug is tested on Prevotella copri strain: DSM18205 for biotransformation. The drug concentrations were measured before and after a 12-h incubation by liquid-chromatography-coupled mass spectrometry (LC–MS)

[3] = anaerostipes sp., 12 h, 2 µM
Description: The drug is tested on Anaerostipes sp. strain: fecal isolate for biotransformation. The drug concentrations were measured before and after a 12-h incubation by liquid-chromatography-coupled mass spectrometry (LC–MS)

[4] = The drug is tested on Bacteroides ovatus strain: ATCC8483 for biotransformation. The drug concentrations were measured before and after a 12-h incubation by liquid-chromatography-coupled mass spectrometry (LC–MS); details: 2 µM
[5] = roseburia intestinalis, 12 h, 2 µM
Description: The drug is tested on Roseburia intestinalis strain: L1-82 for biotransformation. The drug concentrations were measured before and after a 12-h incubation by liquid-chromatography-coupled mass spectrometry (LC–MS)

[6] = The drug is tested on Clostridium symbiosum strain: ATCC14940 for biotransformation. The drug concentrations were measured before and after a 12-h incubation by liquid-chromatography-coupled mass spectrometry (LC–MS); details: 2 µM
[7] = bacteroides stercoris, 12 h, 2 µM
Description: The drug is tested on Bacteroides stercoris strain: ATCC43183 for biotransformation. The drug concentrations were measured before and after a 12-h incubation by liquid-chromatography-coupled mass spectrometry (LC–MS)

[8] = bacteroides thetaiotaomicron, 12 h, 2 µM
Description: The drug is tested on Bacteroides thetaiotaomicron strain: 7330 for biotransformation. The drug concentrations were measured before and after a 12-h incubation by liquid-chromatography-coupled mass spectrometry (LC–MS)

[9] = The drug is tested on Ruminococcus gnavus strain: ATCC29149 for biotransformation. The drug concentrations were measured before and after a 12-h incubation by liquid-chromatography-coupled mass spectrometry (LC–MS); details: mediterraneibacter gnavus, 2 µM
[10] = The drug is tested on Blautia hansenii strain: DSM20583 for biotransformation. The drug concentrations were measured before and after a 12-h incubation by liquid-chromatography-coupled mass spectrometry (LC–MS); details: 2 µM
[11] = The drug is tested on Bacteroides pectinophilus strain: ATCC43243 for biotransformation. The drug concentrations were measured before and after a 12-h incubation by liquid-chromatography-coupled mass spectrometry (LC–MS); details: 2 µM
[12] = The drug is tested on Ruminococcus torques strain: ATCC27756 for biotransformation. The drug concentrations were measured before and after a 12-h incubation by liquid-chromatography-coupled mass spectrometry (LC–MS); assay type: ADME; set-up: dose 2 uM, timepoint 0 vs 12 hours; details: 2 µM
[13] = enterocloster bolteae, 12 h, 2 µM
Description: The drug is tested on Clostridium bolteae strain: ATCCBAA-613 for biotransformation. The drug concentrations were measured before and after a 12-h incubation by liquid-chromatography-coupled mass spectrometry (LC–MS)

[14] = The drug is tested on Bacteroides vulgatus strain: ATCC8482 for biotransformation. The drug concentrations were measured before and after a 12-h incubation by liquid-chromatography-coupled mass spectrometry (LC–MS); details: phocaeicola vulgatus, 2 µM
[15] = The drug is tested on Enterobacter cancerogenus strain: ATCC35316 for biotransformation. The drug concentrations were measured before and after a 12-h incubation by liquid-chromatography-coupled mass spectrometry (LC–MS); details: 2 µM
[16] = The drug is tested on Bifidobacterium ruminantium strain: fecal isolate for biotransformation. The drug concentrations were measured before and after a 12-h incubation by liquid-chromatography-coupled mass spectrometry (LC–MS); details: 2 µM
[17] = The drug is tested on Edwardsiella tarda strain: ATCC23685 for biotransformation. The drug concentrations were measured before and after a 12-h incubation by liquid-chromatography-coupled mass spectrometry (LC–MS); details: 2 µM
[18] = The drug is tested on Bacteroides cellulosilyticus strain: DSM14838 for biotransformation. The drug concentrations were measured before and after a 12-h incubation by liquid-chromatography-coupled mass spectrometry (LC–MS); details: 2 µM
[19] = The drug is tested on Clostridium sp. strain: fecal isolate for biotransformation. The drug concentrations were measured before and after a 12-h incubation by liquid-chromatography-coupled mass spectrometry (LC–MS); details: 2 µM

| Bacterial Biotransformation [1] | Bacterial Biotransformation [2] | Bacterial Biotransformation [3] | Bacterial Biotransformation [4] | Bacterial Biotransformation [5] | Bacterial Biotransformation [6] | Bacterial Biotransformation [7] | Bacterial Biotransformation [8] | Bacterial Biotransformation [9] | Bacterial Biotransformation [11] | Bacterial Biotransformation [12] | Bacterial Biotransformation [13] | Bacterial Biotransformation [14] | Bacterial Biotransformation [15] | Bacterial Biotransformation [16] | Bacterial Biotransformation [17] | Bacterial Biotransformation [18] | Bacterial Biotransformation [19] | Structure (SMILES) | Bacterial Biotransformation [10] |
| --- | --- | --- | --- | --- | --- | --- | --- | --- | --- | --- | --- | --- | --- | --- | --- | --- | --- | --- | --- |
| Compound NOT metabolized | Compound NOT metabolized | Compound NOT metabolized | Compound NOT metabolized | Compound NOT metabolized | Compound NOT metabolized | Compound NOT metabolized | Compound NOT metabolized | Compound NOT metabolized | Compound NOT metabolized | Compound NOT metabolized | Compound NOT metabolized | Compound NOT metabolized | Compound NOT metabolized | Compound NOT metabolized | Compound NOT metabolized | – | – | Clc1ccc(Cn2c(CN3CCCC3)nc3ccccc32)cc1 [CLEMIZOLE] | Compound metabolized |
| Compound metabolized | Compound NOT metabolized | Compound NOT metabolized | Compound metabolized | Compound NOT metabolized | Compound metabolized | Compound metabolized | Compound metabolized | Compound NOT metabolized | – | Compound NOT metabolized | Compound metabolized | Compound metabolized | – | Compound NOT metabolized | Compound metabolized | Compound NOT metabolized | Compound metabolized | c1ccc([C@H]2CN3CCSC3=N2)cc1 [LEVAMISOLE] | – |
| Compound metabolized | Compound metabolized | Compound NOT metabolized | – | Compound NOT metabolized | Compound NOT metabolized | – | – | Compound NOT metabolized | – | Compound NOT metabolized | Compound metabolized | Compound metabolized | Compound NOT metabolized | Compound metabolized | Compound NOT metabolized | Compound metabolized | – | CCOC(=O)[C@H](CCc1ccccc1)N[C@@H](C)C(=O)N1[C@H](C(=O)O)C[C@H]2CCCC[C@@H]21 [TRANDOLAPRIL] | – |

Second part, the compound before the results:

| Structure (SMILES) | Bacterial Biotransformation [1] | Bacterial Biotransformation [2] | Bacterial Biotransformation [3] | Bacterial Biotransformation [4] | Bacterial Biotransformation [5] | Bacterial Biotransformation [6] | Bacterial Biotransformation [7] | Bacterial Biotransformation [8] | Bacterial Biotransformation [9] | Bacterial Biotransformation [11] | Bacterial Biotransformation [12] | Bacterial Biotransformation [13] | Bacterial Biotransformation [14] | Bacterial Biotransformation [15] | Bacterial Biotransformation [16] | Bacterial Biotransformation [17] | Bacterial Biotransformation [18] | Bacterial Biotransformation [19] | Bacterial Biotransformation [10] |
| --- | --- | --- | --- | --- | --- | --- | --- | --- | --- | --- | --- | --- | --- | --- | --- | --- | --- | --- | --- |
| CN(C)CCc1c[nH]c2ccc(CS(=O)(=O)N3CCCC3)cc12 [ALMOTRIPTAN] | Compound NOT metabolized | Compound NOT metabolized | Compound NOT metabolized | Compound NOT metabolized | Compound NOT metabolized | Compound NOT metabolized | Compound NOT metabolized | Compound NOT metabolized | Compound NOT metabolized | Compound NOT metabolized | Compound NOT metabolized | Compound NOT metabolized | Compound NOT metabolized | Compound NOT metabolized | – | Compound NOT metabolized | – | Compound NOT metabolized | – |
| C[N+]12CCC(CC1)C(OC(=O)C(O)(c1ccccc1)c1ccccc1)C2.[Br-] (stereo not given) [CLIDINIUM BROMIDE] | Compound NOT metabolized | Compound NOT metabolized | Compound NOT metabolized | Compound NOT metabolized | Compound NOT metabolized | Compound NOT metabolized | Compound NOT metabolized | Compound NOT metabolized | Compound NOT metabolized | – | – | – | – | – | – | Compound NOT metabolized | – | Compound NOT metabolized | Compound NOT metabolized |
| COc1cc2c(c(OC)c1OC)-c1ccc(OC)c(=O)cc1[C@@H](NC(C)=O)CC2 [COLCHICINE] | Compound metabolized | Compound metabolized | Compound metabolized | Compound NOT metabolized | Compound metabolized | Compound metabolized | Compound metabolized | Compound metabolized | – | – | Compound NOT metabolized | Compound NOT metabolized | Compound metabolized | – | Compound NOT metabolized | Compound NOT metabolized | – | Compound metabolized | Compound metabolized |
| CC(C)NCC(O)COc1ccc(COCCOC(C)C)cc1.CC(C)NCC(O)COc1ccc(COCCOC(C)C)cc1.O=C(O)/C=C/C(=O)O (stereo not given) [BISOPROLOL FUMARATE] | Compound NOT metabolized | Compound NOT metabolized | Compound NOT metabolized | Compound NOT metabolized | Compound NOT metabolized | Compound NOT metabolized | Compound NOT metabolized | Compound NOT metabolized | Compound NOT metabolized | – | Compound NOT metabolized | Compound NOT metabolized | Compound NOT metabolized | – | Compound NOT metabolized | Compound NOT metabolized | Compound NOT metabolized | Compound NOT metabolized | – |
| CCN(CC)CCNC(=O)c1ccc(NC(C)=O)cc1 [ACECAINIDE] | Compound NOT metabolized | Compound NOT metabolized | Compound NOT metabolized | – | Compound NOT metabolized | Compound NOT metabolized | – | Compound NOT metabolized | Compound NOT metabolized | Compound NOT metabolized | Compound NOT metabolized | Compound NOT metabolized | Compound NOT metabolized | – | – | Compound NOT metabolized | – | Compound NOT metabolized | – |
| CN(C)CCC=C1c2ccccc2C=Cc2ccccc21 [CYCLOBENZAPRINE] | Compound NOT metabolized | Compound NOT metabolized | Compound NOT metabolized | Compound NOT metabolized | – | Compound NOT metabolized | Compound NOT metabolized | – | Compound NOT metabolized | – | Compound NOT metabolized | Compound NOT metabolized | Compound NOT metabolized | Compound NOT metabolized | Compound NOT metabolized | Compound NOT metabolized | – | Compound metabolized | Compound metabolized |
| Clc1cccc(Cl)c1N=C1NCCN1 [CLONIDINE] | Compound metabolized | Compound NOT metabolized | Compound NOT metabolized | Compound metabolized | Compound NOT metabolized | Compound NOT metabolized | Compound metabolized | Compound metabolized | Compound NOT metabolized | Compound NOT metabolized | Compound NOT metabolized | Compound NOT metabolized | – | Compound NOT metabolized | Compound NOT metabolized | Compound NOT metabolized | Compound NOT metabolized | Compound NOT metabolized | – |
